Data as given in ChEMBL document CHEMBL1932965, “Synthesis and SAR of inhibitors of protein kinase CK2: novel tricyclic quinoline analogs” (Bioorg Med Chem Lett, 2012).
pIC50: −log10 of the molar value.

Biological target: Casein kinase II alpha/beta (Homo sapiens, UniProt P68400)
Experiment: Inhibition of human recombinant CK2alpha/CK2beta using RRRDDDSDDD peptide as substrate by radiometric assay
Format: protein-complex assay

Casein kinase II alpha/beta, sequence (P68400 whole entry, looked up): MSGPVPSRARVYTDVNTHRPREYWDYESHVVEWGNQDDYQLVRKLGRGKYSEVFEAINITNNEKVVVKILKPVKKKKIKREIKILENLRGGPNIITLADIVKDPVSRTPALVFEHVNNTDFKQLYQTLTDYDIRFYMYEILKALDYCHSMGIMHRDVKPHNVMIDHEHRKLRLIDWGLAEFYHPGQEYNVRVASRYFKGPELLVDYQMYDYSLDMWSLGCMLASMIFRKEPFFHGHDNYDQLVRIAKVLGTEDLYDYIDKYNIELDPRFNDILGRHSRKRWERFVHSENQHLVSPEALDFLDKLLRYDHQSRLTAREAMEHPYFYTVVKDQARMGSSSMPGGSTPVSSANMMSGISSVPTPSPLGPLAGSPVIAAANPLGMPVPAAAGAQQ

pIC50 | SMILES
8.46 | O=C(O)c1ccc2c(c1)nc(-c1cccc(O)c1)c1ncncc12
8.43 | O=C(O)c1ccc2c(c1)nc(Oc1cccc(Cl)c1)c1ccncc12
< 5.60 | N#Cc1ccc2c(c1)nc(-c1ccc(Cl)cc1)c1ccncc12
5.69 | O=C(O)c1cccc2c1nc(-c1ccc(Cl)cc1)c1ccncc12
6.40 | COC(=O)c1ccc2c(c1)nc(-c1ccc(Cl)cc1)c1ccncc12
7.41 | O=C(O)c1ccc2c(c1)nc(-c1ccccc1OC(F)(F)F)c1ccncc12
8.89 | O=C(O)c1ccc2c(c1)nc(-c1cccc(F)c1)c1ccncc12
7.92 | O=C(O)c1ccc2c(c1)nc(-c1ccc(Cl)cc1)c1ncncc12
7.96 | NS(=O)(=O)c1cccc(-c2nc3cc(C(=O)O)ccc3c3cnccc23)c1
7.82 | O=C(O)c1ccc2c(c1)nc(-c1ccccc1F)c1ccncc12
7.77 | NC(=O)c1cccc(-c2nc3cc(C(=O)O)ccc3c3cncnc23)c1
8.68 | O=C(O)c1ccc2c(c1)nc(Cc1cccc(Cl)c1)c1ccncc12
8.05 | CN(c1cccc(Cl)c1)c1nc2cc(C(=O)O)ccc2c2cnccc12
7.89 | CS(=O)(=O)c1cccc(-c2nc3cc(C(=O)O)ccc3c3cnccc23)c1
8.46 | NC(=O)c1cccc(-c2nc3cc(C(=O)O)ccc3c3cnccc23)c1
8.92 | O=C(O)c1ccc2c(c1)nc(-c1ccc(F)cc1)c1ccncc12
8.57 | Nc1cccc(-c2nc3cc(C(=O)O)ccc3c3cnccc23)c1
9.30 | O=C(O)c1ccc2c(c1)nc(-c1ccsc1)c1ccncc12

pIC50 | SMILES
9.30 | CCNc1ncc2c(n1)c(-c1ccc(Cl)cc1)nc1cc(C(=O)O)ccc12
7.46 | O=C(O)c1ccc2c(c1)nc(-c1ccncc1)c1ccncc12
9.00 | O=C(O)c1ccc2c(c1)nc(Sc1cccc(Cl)c1)c1ccncc12
< 5.60 | O=C(O)c1ccc2c(c1)nc(-c1cccnc1)c1ccncc12
9.30 | O=C(O)c1ccc2c(c1)nc(-c1ccc(Cl)cc1)c1ccncc12
7.52 | NC(=O)c1ccc2c(c1)nc(-c1ccc(Cl)cc1)c1ccncc12
9.40 | O=C(O)c1ccc2c(c1)nc(-c1ccc(Cl)s1)c1ccncc12
9.22 | O=C(O)c1ccc2c(c1)nc(-c1ccccc1)c1nc(NC3CC3)ncc12
7.70 | Clc1ccc(-c2nc3cc(-c4nnn[nH]4)ccc3c3cnccc23)cc1
7.47 | COc1cccc(-c2nc3cc(C(=O)O)ccc3c3cnccc23)c1
6.79 | O=C(O)c1ccc2nc(-c3ccc(Cl)cc3)c3ccncc3c2c1
8.38 | Cc1cscc1-c1nc2cc(C(=O)O)ccc2c2cnccc12
9.00 | O=C(O)c1ccc2c(c1)nc(-c1cccc(O)c1)c1ccncc12
6.35 | CONC(=O)c1ccc2c(c1)nc(-c1ccc(Cl)cc1)c1ccncc12
8.54 | O=C(O)c1ccc2c(c1)nc(-c1cccc(Cl)c1)c1ccncc12
8.96 | O=C(O)c1ccc2c(c1)nc(-c1ccccc1)c1ccncc12
8.24 | O=C(O)c1ccc2c(c1)nc(-c1cccc(OC(F)(F)F)c1)c1ccncc12
7.70 | Cc1ccccc1-c1nc2cc(C(=O)O)ccc2c2cnccc12
